{"source": "paper PMC8398847", "about": "“Isavuconazole: Thermodynamic Evaluation of Processes Sublimation, Dissolution and Partition in Pharmaceutically Relevant Media” (Molecules, 2021)", "key": {"[1]": {"assay": "PXRD analysis of bottom phases after solubility experiments", "type": "physicochemical", "settings": "all the studied solvents; no solvated forms", "method": "The IVZ solubility values in buffer solutions of different acidity, ethanol, propanol, 1-octanol and hexane within the temperature range of 293.15–313.15 K were determined by the isothermal saturation method and are presented in Table 2 and Figure 5. After the solubility experiments, the bottom phases were removed from the saturated solutions and analyzed by the PXRD method.\nAfter the solubility study was complete, PXRD analysis was performed on isavuconazole powders recovered from solvents. All samples were measured at 40 kV and 40 mA using a Bruker D8 Advance diffractometer with CuKa radiation (λ = 1.5406 Å) at room temperature. Diffraction patterns for the samples were collected by changing the angle of diffraction (2θ) from 5° to 30° with a step size 0.03°."}, "[2]": {"assay": "Solubility data modeling (modified Apelblat and van’t Hoff equations)", "description": "The modified Apelblat model developed for nonideal solutions is one of the most frequently used models for prediction and correlation of solubility data and can be expressed as follows:(21) lnx=A+B/T/K+Cln(T/K) where x is the compound solubility in the studied solvents, which can be determined by Equation (8); T is the absolute temperature; A, B and C are three empirical constants of the equation. The A and B values represent changes in the solution behavior as a result of the nonideality of the solute solubility, whereas C reflects the connection between the melting point and enthalpy. Despite its simple mathematical expression, this model can ensure high accuracy of prediction of the solute solubility at a variety of temperature values.\nThe van’t Hoff equation can be used to calculate the relationship between the solubility of solute and temperature. The equation can be simplified as Equation (22). (22) lnx=A+B/(T/K) where x represents the mole fraction solubility of compound. T is the absolute temperature and A, B are the regression parameters obtained using multivariable least-square method."}}, "data": [{"smiles": "C[C@@H](c1nc(-c2ccc(C#N)cc2)cs1)[C@](O)(Cn1cncn1)c1cc(F)ccc1F", "note": "[IVZ, Isavuconazole]", "values": [{"measurement": "solid-phase stability during solubility experiments (PXRD)", "setting": "[1]", "result": "stable"}, {"measurement": "xcal modified Apelblat equation", "setting": "[2]; 1-octanol, 293.15 K", "result": "6.2160·10^−3"}, {"measurement": "xcal van’t Hoff equation", "setting": "[2]; 1-octanol, 293.15 K", "result": "6.2245·10^−3"}, {"measurement": "xcal modified Apelblat equation", "setting": "[2]; 1-octanol, 298.15 K", "result": "7.4880·10^−3"}, {"measurement": "xcal van’t Hoff equation", "setting": "[2]; 1-octanol, 298.15 K", "result": "7.4831·10^−3"}, {"measurement": "xcal modified Apelblat equation", "setting": "[2]; 1-octanol, 303.15 K", "result": "8.9532·10^−3"}, {"measurement": "xcal van’t Hoff equation", "setting": "[2]; 1-octanol, 303.15 K", "result": "8.9416·10^−3"}, {"measurement": "xcal modified Apelblat equation", "setting": "[2]; 1-octanol, 308.15 K", "result": "10.629·10^−3"}, {"measurement": "xcal van’t Hoff equation", "setting": "[2]; 1-octanol, 308.15 K", "result": "10.623·10^−3"}, {"measurement": "xcal modified Apelblat equation", "setting": "[2]; 1-octanol, 313.15 K", "result": "12.534·10^−3"}, {"measurement": "xcal van’t Hoff equation", "setting": "[2]; 1-octanol, 313.15 K", "result": "12.551·10^−3"}, {"measurement": "xcal modified Apelblat equation", "setting": "[2]; 1-propanol, 293.15 K", "result": "7.8833·10^−3"}, {"measurement": "xcal van’t Hoff equation", "setting": "[2]; 1-propanol, 293.15 K", "result": "7.8924·10^−3"}, {"measurement": "xcal modified Apelblat equation", "setting": "[2]; 1-propanol, 298.15 K", "result": "9.5597·10^−3"}, {"measurement": "xcal van’t Hoff equation", "setting": "[2]; 1-propanol, 298.15 K", "result": "9.5750·10^−3"}, {"measurement": "xcal modified Apelblat equation", "setting": "[2]; 1-propanol, 303.15 K", "result": "11.528·10^−3"}, {"measurement": "xcal van’t Hoff equation", "setting": "[2]; 1-propanol, 303.15 K", "result": "11.542·10^−3"}, {"measurement": "xcal modified Apelblat equation", "setting": "[2]; 1-propanol, 308.15 K", "result": "13.827·10^−3"}, {"measurement": "xcal van’t Hoff equation", "setting": "[2]; 1-propanol, 308.15 K", "result": "13.830·10^−3"}, {"measurement": "xcal modified Apelblat equation", "setting": "[2]; 1-propanol, 313.15 K", "result": "16.501·10^−3"}, {"measurement": "xcal van’t Hoff equation", "setting": "[2]; 1-propanol, 313.15 K", "result": "16.475·10^−3"}, {"measurement": "xcal modified Apelblat equation", "setting": "[2]; buffer pH 1.2, 293.15 K", "result": "6.8301·10^−7"}, {"measurement": "xcal van’t Hoff equation", "setting": "[2]; buffer pH 1.2, 293.15 K", "result": "6.8234·10^−7"}, {"measurement": "xcal modified Apelblat equation", "setting": "[2]; buffer pH 1.2, 298.15 K", "result": "7.6469·10^−7"}, {"measurement": "xcal van’t Hoff equation", "setting": "[2]; buffer pH 1.2, 298.15 K", "result": "7.6519·10^−7"}, {"measurement": "xcal modified Apelblat equation", "setting": "[2]; buffer pH 1.2, 303.15 K", "result": "8.5388·10^−7"}, {"measurement": "xcal van’t Hoff equation", "setting": "[2]; buffer pH 1.2, 303.15 K", "result": "8.5488·10^−7"}, {"measurement": "xcal modified Apelblat equation", "setting": "[2]; buffer pH 1.2, 308.15 K", "result": "9.5109·10^−7"}, {"measurement": "xcal van’t Hoff equation", "setting": "[2]; buffer pH 1.2, 308.15 K", "result": "9.5164·10^−7"}, {"measurement": "xcal modified Apelblat equation", "setting": "[2]; buffer pH 1.2, 313.15 K", "result": "10.568·10^−7"}, {"measurement": "xcal van’t Hoff equation", "setting": "[2]; buffer pH 1.2, 313.15 K", "result": "10.557·10^−7"}, {"measurement": "xcal modified Apelblat equation", "setting": "[2]; buffer pH 2.0, 293.15 K", "result": "1.8489·10^−7"}, {"measurement": "xcal van’t Hoff equation", "setting": "[2]; buffer pH 2.0, 293.15 K", "result": "1.8386·10^−7"}, {"measurement": "xcal modified Apelblat equation", "setting": "[2]; buffer pH 2.0, 298.15 K", "result": "2.2301·10^−7"}, {"measurement": "xcal van’t Hoff equation", "setting": "[2]; buffer pH 2.0, 298.15 K", "result": "2.2353·10^−7"}, {"measurement": "xcal modified Apelblat equation", "setting": "[2]; buffer pH 2.0, 303.15 K", "result": "2.6872·10^−7"}, {"measurement": "xcal van’t Hoff equation", "setting": "[2]; buffer pH 2.0, 303.15 K", "result": "2.7002·10^−7"}, {"measurement": "xcal modified Apelblat equation", "setting": "[2]; buffer pH 2.0, 308.15 K", "result": "3.2354·10^−7"}, {"measurement": "xcal van’t Hoff equation", "setting": "[2]; buffer pH 2.0, 308.15 K", "result": "3.2418·10^−7"}, {"measurement": "xcal modified Apelblat equation", "setting": "[2]; buffer pH 2.0, 313.15 K", "result": "3.8914·10^−7"}, {"measurement": "xcal van’t Hoff equation", "setting": "[2]; buffer pH 2.0, 313.15 K", "result": "3.8694·10^−7"}, {"measurement": "xcal modified Apelblat equation", "setting": "[2]; buffer pH 7.4, 293.15 K", "result": "1.1915·10^−7"}, {"measurement": "xcal van’t Hoff equation", "setting": "[2]; buffer pH 7.4, 293.15 K", "result": "1.1936·10^−7"}, {"measurement": "xcal modified Apelblat equation", "setting": "[2]; buffer pH 7.4, 298.15 K", "result": "1.4708·10^−7"}, {"measurement": "xcal van’t Hoff equation", "setting": "[2]; buffer pH 7.4, 298.15 K", "result": "1.4693·10^−7"}, {"measurement": "xcal modified Apelblat equation", "setting": "[2]; buffer pH 7.4, 303.15 K", "result": "1.7998·10^−7"}, {"measurement": "xcal van’t Hoff equation", "setting": "[2]; buffer pH 7.4, 303.15 K", "result": "1.7964·10^−7"}, {"measurement": "xcal modified Apelblat equation", "setting": "[2]; buffer pH 7.4, 308.15 K", "result": "2.1840·10^−7"}, {"measurement": "xcal van’t Hoff equation", "setting": "[2]; buffer pH 7.4, 308.15 K", "result": "2.1821·10^−7"}, {"measurement": "xcal modified Apelblat equation", "setting": "[2]; buffer pH 7.4, 313.15 K", "result": "2.6294·10^−7"}, {"measurement": "xcal van’t Hoff equation", "setting": "[2]; buffer pH 7.4, 313.15 K", "result": "2.6341·10^−7"}, {"measurement": "xcal modified Apelblat equation", "setting": "[2]; ethanol, 293.15 K", "result": "0.9240·10^−2"}, {"measurement": "xcal van’t Hoff equation", "setting": "[2]; ethanol, 293.15 K", "result": "0.9213·10^−2"}, {"measurement": "xcal modified Apelblat equation", "setting": "[2]; ethanol, 298.15 K", "result": "1.1326·10^−2"}, {"measurement": "xcal van’t Hoff equation", "setting": "[2]; ethanol, 298.15 K", "result": "1.1348·10^−2"}, {"measurement": "xcal modified Apelblat equation", "setting": "[2]; ethanol, 303.15 K", "result": "1.3835·10^−2"}, {"measurement": "xcal van’t Hoff equation", "setting": "[2]; ethanol, 303.15 K", "result": "1.3883·10^−2"}, {"measurement": "xcal modified Apelblat equation", "setting": "[2]; ethanol, 308.15 K", "result": "1.6844·10^−2"}, {"measurement": "xcal van’t Hoff equation", "setting": "[2]; ethanol, 308.15 K", "result": "1.6873·10^−2"}, {"measurement": "xcal modified Apelblat equation", "setting": "[2]; ethanol, 313.15 K", "result": "2.0441·10^−2"}, {"measurement": "xcal van’t Hoff equation", "setting": "[2]; ethanol, 313.15 K", "result": "2.0379·10^−2"}, {"measurement": "xcal modified Apelblat equation", "setting": "[2]; hexane, 293.15 K", "result": "5.5187·10^−5"}, {"measurement": "xcal van’t Hoff equation", "setting": "[2]; hexane, 293.15 K", "result": "5.5171·10^−5"}, {"measurement": "xcal modified Apelblat equation", "setting": "[2]; hexane, 298.15 K", "result": "7.0549·10^−5"}, {"measurement": "xcal van’t Hoff equation", "setting": "[2]; hexane, 298.15 K", "result": "7.0584·10^−5"}, {"measurement": "xcal modified Apelblat equation", "setting": "[2]; hexane, 303.15 K", "result": "8.9506·10^−5"}, {"measurement": "xcal van’t Hoff equation", "setting": "[2]; hexane, 303.15 K", "result": "8.9572·10^−5"}, {"measurement": "xcal modified Apelblat equation", "setting": "[2]; hexane, 308.15 K", "result": "11.274·10^−5"}, {"measurement": "xcal van’t Hoff equation", "setting": "[2]; hexane, 308.15 K", "result": "11.279·10^−5"}, {"measurement": "xcal modified Apelblat equation", "setting": "[2]; hexane, 313.15 K", "result": "14.103·10^−5"}, {"measurement": "xcal van’t Hoff equation", "setting": "[2]; hexane, 313.15 K", "result": "14.099·10^−5"}]}]}
